According to patent US9062041B2 (Bayer Intellectual Property GmbH, priority 2011, dated 2015):

Assays:
Assay type in all cases: cell-based
[1] = target: EP4 subtype of the human PGE2 receptor (Homo sapiens, UniProt P35408); test: cAMP antagonism test on the human EP4 receptor (HTRF cAMP detection); settings: selectivity towards hEP4, IC50 measured by cAMP antagonism test
How it was run: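 Cells expressing human EP4 preincubated 20 min at RT with compound (0.8 nM–16.5 μM), then stimulated with PGE2 (0.3 nM in 3× solution, with IBMX) 60 min at RT. After lysis, cAMP measured by HTRF competition (665/620 nm ratio); antagonism seen as rise in FRET signal.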

[2] = target: EP2 subtype of the human PGE2 receptor (Homo sapiens, UniProt P43116); test: cAMP antagonism test on the human EP2 receptor (HTRF cAMP detection); settings: hEP2 receptor, read-out: Antagonism hEP2 IC50
How it was run: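 Cells expressing human EP2 preincubated 20 min at RT with compound (0.8 nM–16.5 μM), then stimulated 60 min with PGE2 (3× solution 1.5 nM) in PBS-IBMX. After 20 min lysis, cAMP measured by competitive HTRF with cAMP-d2 and Eu cryptate anti-cAMP antibody (665/620 nm ratio).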

human PGD receptor = target: T1, human PGD receptor (Homo sapiens, UniProt Q13258); test: cAMP antagonism test on the human prostaglandin D receptor (HTRF cAMP detection); settings: selectivity towards hDP, IC50 measured by cAMP antagonism test
T1 sequence (Q13258 1-359): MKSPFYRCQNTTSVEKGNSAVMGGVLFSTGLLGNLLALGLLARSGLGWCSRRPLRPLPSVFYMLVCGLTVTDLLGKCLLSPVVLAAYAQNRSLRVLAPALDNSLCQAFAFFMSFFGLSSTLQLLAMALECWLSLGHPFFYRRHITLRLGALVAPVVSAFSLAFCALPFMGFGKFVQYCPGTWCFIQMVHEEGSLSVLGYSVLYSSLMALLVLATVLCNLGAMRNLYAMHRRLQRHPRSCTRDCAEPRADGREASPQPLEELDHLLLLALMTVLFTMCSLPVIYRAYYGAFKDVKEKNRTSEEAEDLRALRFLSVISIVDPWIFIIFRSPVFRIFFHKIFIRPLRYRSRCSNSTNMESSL
How it was run: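 Cells pre-mixed with cAMP-d2 were preincubated with compound (0.8 nM–16.5 μM) for 20 min at RT, then stimulated with 3× PGD2 solution (6 nM, in PBS-IBMX) for 30 min at RT. After lysis (20 min), HTRF read at 665/620 nm; antagonism seen as rise in FRET ratio.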

Sequence of EP2 subtype of the human PGE2 receptor (P43116 whole entry): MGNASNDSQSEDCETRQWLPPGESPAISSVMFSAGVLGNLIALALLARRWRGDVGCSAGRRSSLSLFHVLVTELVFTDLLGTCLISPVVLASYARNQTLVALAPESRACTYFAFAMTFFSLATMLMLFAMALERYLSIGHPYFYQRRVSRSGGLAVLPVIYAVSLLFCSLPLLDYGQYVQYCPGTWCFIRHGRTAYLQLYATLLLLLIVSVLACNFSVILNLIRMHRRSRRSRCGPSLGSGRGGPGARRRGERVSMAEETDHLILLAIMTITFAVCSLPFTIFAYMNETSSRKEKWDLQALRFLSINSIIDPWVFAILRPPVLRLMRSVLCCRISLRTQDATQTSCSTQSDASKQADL
Sequence of EP4 subtype of the human PGE2 receptor (P35408 whole entry): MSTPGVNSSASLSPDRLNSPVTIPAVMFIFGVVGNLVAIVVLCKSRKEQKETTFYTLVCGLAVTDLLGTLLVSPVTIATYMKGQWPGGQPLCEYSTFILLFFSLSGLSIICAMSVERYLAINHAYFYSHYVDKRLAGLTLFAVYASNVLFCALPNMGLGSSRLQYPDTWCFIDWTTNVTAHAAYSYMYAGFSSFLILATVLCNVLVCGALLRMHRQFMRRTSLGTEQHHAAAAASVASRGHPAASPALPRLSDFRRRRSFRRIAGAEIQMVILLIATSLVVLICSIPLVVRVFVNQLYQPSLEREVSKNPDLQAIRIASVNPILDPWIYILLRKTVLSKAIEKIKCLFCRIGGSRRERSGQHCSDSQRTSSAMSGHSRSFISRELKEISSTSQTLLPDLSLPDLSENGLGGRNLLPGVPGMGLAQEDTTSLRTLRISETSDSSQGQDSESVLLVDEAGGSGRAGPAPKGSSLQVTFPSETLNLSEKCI

Selectivity hEP2/hEP4 [1]	IC50 [2]	Selectivity hEP2/hDP (human PGD receptor)	Compound
xx (xx: 10-100)	513 nM	xx (xx: 10-100)	Cc1cc2nn(CC3CCN(C(=O)c4cccc(S(F)(F)(F)(F)F)c4)CC3)cc2cc1C(=O)NCCN1CCOCC1 [Example 81, 6-methyl-N-(2-morpholinoethyl)-2-({1-[3-(pentafluoro-λ^6-sulphanyl)benzoyl]-piperidin-4-yl}-methyl)-2H-indazol-5-carboxamide]
xxx (xxx > 100)	9.89 nM	xxx (xxx > 100)	COCCNC(=O)c1ccc2nn(CC3CCN(C(=O)c4ccc(-c5ccc(F)cc5)cc4)CC3)cc2c1OC(F)F [Example 227, 4-(difluoromethoxy)-2-({1-[(4′-fluorobiphenyl-4-yl)carbonyl]piperidin-4-yl}methyl)-N-(2-methoxyethyl)-2H-indazol-5-carboxamide]
xxx (xxx > 100)	8.67 nM	xxx (xxx > 100)	COCCNC(=O)c1ccc2nn(CC3CCN(C(=O)c4ccc(C(F)(F)F)cc4F)CC3)cc2c1C [Example 10, 2-({1-[2-fluoro-4-(trifluoromethyl)benzoyl]piperidin-4-yl}methyl)-N-(2-methoxy-ethyl)-4-methyl-2H-indazol-5-carboxamide]
xxx (xxx > 100)	21.3 nM	xxx (xxx > 100)	Cc1c(C(=O)NCC2COCCO2)ccc2nn(CC3CCN(C(=O)c4ccc(Cl)cc4)CC3)cc12 (single isomer, unassigned) [Example 415, (S or R)-2-{[1-(4-chlorobenzoyl)piperidin-4-yl]methyl}-N-(1,4-dioxan-2-ylmethyl)-4-methyl-2H-indazol-5-carboxamide]
xxx (xxx > 100)	24.9 nM	xxx (xxx > 100)	Cc1cc2nn(CC3CN(C(=O)c4ccc(Oc5ccc(C(F)(F)F)cc5)cc4)C3)cc2cc1C(=O)NCC(F)(F)F [Example 201, 6-methyl-N-(2,2,2-trifluoroethyl)-2-[(1-{4-[4-(trifluoromethyl)phenoxy]benzoyl}azetidin-3-yl)methyl]-2H-indazol-5-carboxamide]
xxx (xxx > 100)	9.53 nM	xxx (xxx > 100)	COCCNC(=O)c1ccc2nn(CC3CCN(C(=O)c4ccc(Oc5ccc(C#N)cc5)cc4)CC3)cc2c1C [Example 330, 2-({1-[4-(4-cyanophenoxy)benzoyl]piperidin-4-yl}methyl)-N-(2-methoxyethyl)-4-methyl-2H-indazol-5-carboxamide]
xxx (xxx > 100)	6.58 nM	xxx (xxx > 100)	COCCNC(=O)c1ccc2nn(CC3CN(C(=O)c4ccc(Oc5ccc(C(F)(F)F)cn5)cc4)C3)cc2c1C [Example 174, N-(2-methoxyethyl)-4-methyl-2-{[1-(4-{[5-(trifluoromethyl)pyridin-2-yl]oxy}benzoyl)azetidin-3-yl]methyl}-2H-indazol-5-carboxamide]
xxx (xxx > 100)	64.3 nM	xxx (xxx > 100)	COCCNC(=O)c1ccc2nn(CC3CCN(C(=O)c4ccc(Oc5ccc(C(N)=O)cc5)cc4)CC3)cc2c1C [Example 30, 2-({1-[4-(4-carbamoylphenoxy)-benzoyl]piperidin-4-yl}methyl)-N-(2-methoxyethyl)-4-methyl-2H-indazol-5-carboxamide]
xxx (xxx > 100)	17.3 nM	xxx (xxx > 100)	COCCNC(=O)c1cc2cn(CC3CN(C(=O)c4ccc(SC(F)(F)F)cc4)C3)nc2cc1C [Example 180, N-(2-methoxyethyl)-6-methyl-2-[(1-{4-[(trifluoromethyl)sulphanyl]benzoyl}azetidin-3-yl)methyl]-2H-indazol-5-carboxamide]
xx (xx: 10-100)	228 nM	xx (xx: 10-100)	Cc1c(C(=O)NCC(F)(F)F)ccc2nn(CC3CN(C(=O)c4ccc(C(F)(F)F)cc4F)C3)cc12 [Example 131, 2-({1-[2-fluoro-4-(trifluoromethyl)benzoyl]azetidin-3-yl}methyl)-4-methyl-N-(2,2,2-trifluoroethyl)-2H-indazol-5-carboxamide]
xxx (xxx > 100)	82.9 nM	xxx (xxx > 100)	Cc1c(C(=O)NCC(F)(F)F)ccc2nn(CC3CCN(C(=O)c4ccc(S(F)(F)(F)(F)F)cc4)CC3)cc12 [Example 71, 4-methyl-2-({1-[4-(pentafluoro-λ^6-sulphanyl)benzoyl]piperidin-4-yl}methyl)-N-(2,2,2-trifluoroethyl)-2H-indazol-5-carboxamide]
xxx (xxx > 100)	85.7 nM	xxx (xxx > 100)	Cc1cc2nn(CC3CN(C(=O)c4ccc(-c5ccc(F)cc5)cc4)C3)cc2cc1C(=O)NCC(F)(F)F [Example 203, 2-({1-[(4′-fluorobiphenyl-4-yl)carbonyl]azetidin-3-yl}methyl)-6-methyl-N-(2,2,2-trifluoroethyl)-2H-indazol-5-carboxamide]
xxx (xxx > 100)	24.2 nM	xxx (xxx > 100)	COCCNC(=O)c1ccc2nn(CC3CCN(C(=O)c4cccc(C(F)(F)F)c4)CC3)cc2c1C [Example 26, N-(2-methoxyethyl)-4-methyl-2-({1-[3-(trifluoromethyl)-benzoyl]piperidin-4-yl}methyl)-2H-indazol-5-carboxamide]
xxx (xxx > 100)	57.5 nM	xxx (xxx > 100)	O=C(NCCOCC1CC1)c1ccc2nn(CC3CCN(C(=O)c4ccc(Oc5ccc(F)cc5)cc4)CC3)cc2c1OCC(F)(F)F [Example 236, N-[2-(cyclopropylmethoxy)ethyl]-2-({1-[4-(4-fluorophenoxy)benzoyl]piperidin-4-yl}methyl)-4-(2,2,2-trifluoroethoxy)-2H-indazol-5-carboxamide]
xxx (xxx > 100)	74.2 nM	xxx (xxx > 100)	COCCNC(=O)c1ccc2nn(CC3CCN(C(=O)c4ccc(C(C)(C)O)cc4)CC3)cc2c1C [Example 334, 2-({1-[4-(1-hydroxy-1-methylethyl)benzoyl]piperidin-4-yl}methyl)-N-(2-methoxyethyl)-4-methyl-2H-indazol-5-carboxamide]
xxx (xxx > 100)	33.5 nM	xxx (xxx > 100)	COCCNC(=O)c1ccc2nn(CC3CCN(C(=O)c4ccc(Cl)cc4F)CC3)cc2c1OC [Example 271, 2-{[1-(4-chloro-2-fluorobenzoyl)piperidin-4-yl]methyl}-4-methoxy-N-(2-methoxyethyl)-2H-indazol-5-carboxamide]
xxx (xxx > 100)	35.2 nM	xxx (xxx > 100)	COCCNC(=O)c1cc2cn(CC3CN(C(=O)c4ccc(OC(F)(F)F)cc4)C3)nc2cc1C [Example 181, N-(2-methoxyethyl)-6-methyl-2-({1-[4-(trifluoromethoxy)benzoyl]azetidin-3-yl}methyl)-2H-indazol-5-carboxamide]
xxx (xxx > 100)	11.4 nM	xxx (xxx > 100)	Cc1c(C(=O)NCCOC(F)(F)F)ccc2nn(CC3CCN(C(=O)c4ccc(Cl)cc4)CC3)cc12 [Example 107, 2-{[1-(4-chlorobenzoyl)piperidin-4-yl]methyl}-4-methyl-N-[2-(trifluoromethoxy)ethyl]-2H-indazol-5-carboxamide]
xxx (xxx > 100)	6.84 nM	xxx (xxx > 100)	COCCNC(=O)c1ccc2nn(CC3CCN(C(=O)c4ccc(-c5ccc(OC)cc5)cc4)CC3)cc2c1C [Example 351, 2-({1-[(4′-methoxybiphenyl-4-yl)carbonyl]piperidin-4-yl}methyl)-N-(2-methoxy-ethyl)-4-methyl-2H-indazol-5-carboxamide]
xxx (xxx > 100)	5.78 nM	xxx (xxx > 100)	COCCNC(=O)c1ccc2nn(CC3CCN(C(=O)c4ccc(-c5ccc(Cl)cc5F)cc4)CC3)cc2c1C [Example 383, 2-({1-[(4′-chloro-2′-fluorobiphenyl-4-yl)carbonyl]piperidin-4-yl}methyl)-N-(2-methoxyethyl)-4-methyl-2H-indazol-5-carboxamide]

Compound	Selectivity hEP2/hEP4 [1]	IC50 [2]	Selectivity hEP2/hDP (human PGD receptor)
Cc1c(C(=O)NCCOC(C)(C)C)ccc2nn(CC3CCN(C(=O)c4ccc(Oc5ccc(F)cc5)cc4)CC3)cc12 [Example 112, N-(2-tert-butoxyethyl)-2-({1-[4-(4-fluoro-phenoxy)benzoyl]-piperidin-4-yl}methyl)-4-methyl-2H-indazol-5-carboxamide]	xxx (xxx > 100)	11.9 nM	xxx (xxx > 100)
